The values below are quoted from earlier work in US20090241221A1, “TANDEM REAPEAT DNA CONSTRUCTS PRODUCING PROTEINS THAT ATTACK PLANT PATHOGENIC VIRUSES, FUNGI, AND BACTERIA BY DISRUPTING TRANSCRIPTION FACTORS ESSENTIAL FOR REPLICATION THEREOF IN PLANTS” (priority 2008, published 2009).

Molecules are shown by their SMILES.

The data set has as its system Magnaporthe grisea. The settings on record: PA treated plants; doses in the range of 0.5 mg/mL; cited from earlier work.

In the case of `O=C(O)c1ccccn1` [picolinic acid, 2-pyridine carboxylic acid], the “resistance against M. grisea” value is “enhanced”.
